Measured values published in patent US20250264484A1, “METHODS FOR IDENTIFYING AND TREATING DISEASES” (Genzyme Corporation, priority 2022, published 2025).

Experiments:
α-glucosidases = conditions: range given jointly for three glycosidases; read-out: IC50 against α-glucosidases; cited from earlier work
[1] = target: T1, non-lysosomal glucosylceramidase (Homo sapiens, UniProt Q9HCG7); conditions: range given jointly for three glycosidases; read-out: IC50 against non-lysosomal glucosylceramidase; cited from earlier work
T1 sequence (Q9HCG7 1-927): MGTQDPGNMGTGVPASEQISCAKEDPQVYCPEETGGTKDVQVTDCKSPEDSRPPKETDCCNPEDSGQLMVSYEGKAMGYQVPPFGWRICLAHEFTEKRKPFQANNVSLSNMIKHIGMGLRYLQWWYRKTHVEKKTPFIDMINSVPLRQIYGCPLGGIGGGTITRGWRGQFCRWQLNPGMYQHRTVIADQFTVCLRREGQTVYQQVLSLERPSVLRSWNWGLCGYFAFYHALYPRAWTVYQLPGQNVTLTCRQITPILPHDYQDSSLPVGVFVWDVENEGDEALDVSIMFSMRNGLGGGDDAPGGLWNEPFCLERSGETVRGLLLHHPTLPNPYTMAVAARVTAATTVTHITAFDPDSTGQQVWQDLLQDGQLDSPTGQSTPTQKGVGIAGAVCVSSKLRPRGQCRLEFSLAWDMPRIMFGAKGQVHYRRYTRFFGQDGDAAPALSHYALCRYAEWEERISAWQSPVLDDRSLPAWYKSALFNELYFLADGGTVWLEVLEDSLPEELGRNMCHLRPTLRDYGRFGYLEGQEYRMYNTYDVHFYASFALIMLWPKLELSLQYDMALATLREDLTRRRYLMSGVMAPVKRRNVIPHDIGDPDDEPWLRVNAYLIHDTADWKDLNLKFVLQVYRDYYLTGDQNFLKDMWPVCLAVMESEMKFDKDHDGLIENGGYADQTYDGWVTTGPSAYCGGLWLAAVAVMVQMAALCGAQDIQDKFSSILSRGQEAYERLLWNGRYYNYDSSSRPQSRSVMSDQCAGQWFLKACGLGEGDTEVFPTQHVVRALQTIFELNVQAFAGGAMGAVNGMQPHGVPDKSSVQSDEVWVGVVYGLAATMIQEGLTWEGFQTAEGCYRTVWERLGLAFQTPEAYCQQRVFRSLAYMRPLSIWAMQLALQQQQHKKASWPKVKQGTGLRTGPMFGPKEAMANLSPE

[2] = test system: SHSY-5Y neuroblastoma cells; test: Lipid response of SHSY-5Y neuroblastoma cells to CBE incubation; type: cell-based, human; conditions: 100 μM CBE for 24 hours
Description: In each case, the lyso-GL1 levels without treatment are very low (left-hand bar, in black). Error bars show SD, and data are presented in relative (arbitrary) units, “AU”, which are normalized for cell number.
First, the response of human SHSY-5Y neuroblastoma cells to CBE was studied. Cells were either used without further changes (wild-type) or were modified to reduce or increase Gba activity (knock-down and over-expressed, respectively). The modification was effected by stable transfection with a plasmid expressing an siRNA targeting GBA (KD) or a plasmid constitutively overexpressing GBA (OE). Human SHSY-5Y neuroblastoma cells (Sigma) were incubated with 100 μM CBE (Toronto Research Chemicals) for 24 hours. Enzyme activity and lipid levels were measured at −24 hours (before CBE incubation), and at 0, 24, and 48 hours after CBE removal. […] A marked increase in enzyme activity was observed between the knock-down and wild-type cells, and between the wild-type and over-expressed cells.

GCase [3] = target: T2, GCase (Mus musculus, UniProt P17439); test: CBE dose titration in WT mice: GCase activity (4MU hydrolysis assay); type: in vivo; conditions: cortex and liver, 24 hours, 0.3-100 mg/kg CBE
T2 construct: GCase activity remaining 24 hours after administration of CBE was measured; from tissue; host or cells: cortex and liver of wild-type mice (Charles River Laboratories or Jackson Labs)
T2 sequence (P17439 20-515): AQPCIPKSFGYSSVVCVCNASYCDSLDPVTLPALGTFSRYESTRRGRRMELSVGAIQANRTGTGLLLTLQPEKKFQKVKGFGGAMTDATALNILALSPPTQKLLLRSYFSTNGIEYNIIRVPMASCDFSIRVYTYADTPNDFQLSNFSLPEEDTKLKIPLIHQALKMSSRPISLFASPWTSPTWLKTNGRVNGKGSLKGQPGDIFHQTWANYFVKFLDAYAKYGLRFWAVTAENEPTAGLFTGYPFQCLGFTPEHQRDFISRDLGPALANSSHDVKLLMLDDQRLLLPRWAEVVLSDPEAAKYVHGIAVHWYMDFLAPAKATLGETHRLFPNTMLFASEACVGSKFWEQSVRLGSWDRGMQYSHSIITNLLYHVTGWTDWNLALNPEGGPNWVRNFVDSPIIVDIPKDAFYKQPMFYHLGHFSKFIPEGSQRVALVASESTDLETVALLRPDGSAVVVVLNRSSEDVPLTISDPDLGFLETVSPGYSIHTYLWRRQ
Protocol: N=4 per group (8 for untreated and 100 mg/kg plasma). […] Error bars show SEM.

β-glucuronidase = target: T3, β-glucuronidase (Homo sapiens, UniProt P08236); conditions: range given jointly for three glycosidases; read-out: IC50 against β-glucuronidase; cited from earlier work
T3 sequence (P08236 23-651): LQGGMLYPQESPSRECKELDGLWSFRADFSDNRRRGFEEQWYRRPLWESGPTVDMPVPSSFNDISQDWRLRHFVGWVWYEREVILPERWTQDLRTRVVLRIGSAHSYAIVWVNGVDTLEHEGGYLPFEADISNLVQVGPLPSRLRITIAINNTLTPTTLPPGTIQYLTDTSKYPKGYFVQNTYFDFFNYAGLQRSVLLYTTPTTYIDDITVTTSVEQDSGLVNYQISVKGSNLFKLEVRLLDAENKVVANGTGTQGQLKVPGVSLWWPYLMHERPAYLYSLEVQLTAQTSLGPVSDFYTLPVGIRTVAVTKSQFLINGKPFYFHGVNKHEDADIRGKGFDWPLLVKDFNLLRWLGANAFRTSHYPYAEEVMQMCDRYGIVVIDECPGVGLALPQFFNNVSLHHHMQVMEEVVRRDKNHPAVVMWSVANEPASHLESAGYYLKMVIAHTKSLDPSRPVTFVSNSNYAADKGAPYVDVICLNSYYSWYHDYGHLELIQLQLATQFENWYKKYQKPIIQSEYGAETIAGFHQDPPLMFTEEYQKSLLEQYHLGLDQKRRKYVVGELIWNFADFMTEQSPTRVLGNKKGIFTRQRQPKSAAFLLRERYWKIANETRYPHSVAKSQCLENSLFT

[4] = test system: GL1 and lyso-GL1 accumulation; test: CBE timecourse of lipid flux in Gba D409V/D409V, D409V/+ and +/+ mice; type: in vivo; conditions: single intraperitoneal CBE injection
Description: For each plot, the top line (with squares) is the homozygous D409V mice, the middle line (with triangles pointing upwards) is the heterozygous mice, and the bottom line (triangles pointing downwards) is the wild-type mice. N=10 per group. Data are shown as mean±SEM.
It was investigated whether substrate accumulation could allow for discrimination between mice harboring different copy numbers of mutations in GBA1. Three mouse models were investigated: Gba^D409V/D409V, Gba^D409V/+, and Gba^+/+, which are homozygous for a loss of function D409V mutation in GBA1, heterozygous for that mutation, or WT for GBA1, respectively. The GCase substrate, glucosylceramide (GL1) was investigated in addition to glucosylsphingosine (lyso-GL1). Mice were administered a single dose of CBE and sacrificed after 3, 6, 24, 48, or 72 hours. Substrate accumulation and dissipation was measured over time.

Lyso-GL1 levels = test: CBE dose titration in WT mice: lyso-GL1 accumulation; type: in vivo; conditions: cortex, liver and plasma, 24 hours after CBE
Protocol: Lyso-GL1 was detected in cortex (FIG. 2A), liver (FIG. 2B), and plasma (FIG. 2C). N=4 per group (8 for untreated and 100 mg/kg plasma). Results for lyso-GL1 are μg/g wet tissue. […] Error bars show SEM.
A dose response to CBE was performed in wild-type (WT) mice (Charles River Laboratories or Jackson Labs). Concentrations between 0.3 mg/kg and 100 mg/kg of CBE were investigated. GCase activity remaining 24 hours after administration of CBE was measured using a 4-methylumbelliferone (4MU) hydrolysis assay. Briefly, cell lysates from different sample types were diluted into 0.1 M sodium acetate buffer, pH 4.5 containing 10 mM of synthetic substrate 4-methylumbelliferyl-β-D-glucopyranoside and incubated at 37° C. for 1 hour. The reaction was terminated by adding 0.5 volume of 1 M glycine buffer, pH 12.5. The fluorescence of the reaction was measured using a Spectramax fluorimeter (Ex365/Em445; Molecular Devices, Sunnyvale, CA, USA). A standard curve was generated using Cerezyme® (imiglucerase).

[5] = test system: lyso-GL1 and GL-1 accumulation; test: CBE timecourse of lipid flux in wild-type mouse strains; type: in vivo; conditions: C57BL/6, BALB/cJ and FVB mice after CBE challenge
Protocol: GSL levels were measured in cortex (FIG. 4A), liver (FIG. 4B), and plasma (FIG. 4C). […] Data are shown as mean±SD.
Three different wild-type mouse strains (C57BL/6J, BALB/cJ, and FVB-Charles River Laboratories or Jackson Labs) were evaluated for GSL accumulation and restoration after CBE challenge. […] The CBE challenge time course was performed in these three different strains, measuring lyso-GL1 and GL-1 accumulation at 24, 48, and 72 hours after administration.

[6] = test system: human peripheral blood mononuclear cells (PBMCs); test: CBE challenge in human PBMCs; type: cell-based
Protocol: PBMCs were obtained from blood samples (Stem Cell Technologies, catalog number 70025, lot number 2105417005, Donor ID CE0006419) using standard procedures. 25,000 cells were added to individual wells of a multi-well plate and allowed to acclimate for 24 hours before they were treated with 100 μM CBE for 24 hours. Culture medium was removed and replaced with fresh medium (without CBE), and lipids were extracted from the cells at time intervals of 0, 2, 4, 8, 16 and 24 hours. GL1 and lyso-GL1 levels were measured, as were levels of phosphatidylcholine (PC).

GCase [7] = target: T4, GCase (Homo sapiens, UniProt P04062); conditions: read-out: IC50 against GCase; cited from earlier work
T4 sequence (P04062 40-536): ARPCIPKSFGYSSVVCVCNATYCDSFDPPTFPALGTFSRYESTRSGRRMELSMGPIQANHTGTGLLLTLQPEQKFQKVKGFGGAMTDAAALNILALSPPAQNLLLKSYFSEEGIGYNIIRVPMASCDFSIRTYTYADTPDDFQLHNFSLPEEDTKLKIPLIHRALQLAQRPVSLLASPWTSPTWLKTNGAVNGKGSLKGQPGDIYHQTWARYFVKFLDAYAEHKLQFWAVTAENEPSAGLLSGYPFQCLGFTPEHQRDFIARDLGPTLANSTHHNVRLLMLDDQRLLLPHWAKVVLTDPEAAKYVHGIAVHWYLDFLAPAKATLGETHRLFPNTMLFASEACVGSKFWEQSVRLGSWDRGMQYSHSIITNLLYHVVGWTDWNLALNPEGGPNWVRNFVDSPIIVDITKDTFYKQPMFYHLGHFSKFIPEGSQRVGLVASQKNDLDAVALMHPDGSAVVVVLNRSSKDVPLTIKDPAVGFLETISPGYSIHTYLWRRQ

[8] = test system: SHSY-5Y neuroblastoma cells; conditions: wild-type cells

Structure (SMILES): O[C@H]1[C@H](O)[C@@H](O)[C@@H]2O[C@@H]2[C@@H]1O [CBE, conduritol-β epoxide]
- IC50 (α-glucosidases): 200 to 2000 µM
- IC50 [1]: 200 to 2000 µM
- GL1 and lyso-GL1 accumulation upon CBE treatment ([2]; KD, WT and OE SHSY-5Y cells): inversely proportional to the level of GBA1 expression
- total GL1 levels after treatment ([2]; wild-type SHSY-5Y cells): No significant difference
- GCase activity remaining after administration of CBE (GCase [3]): dose-dependent reduction in enzyme activity
- IC50 (β-glucuronidase): 200 to 2000 µM
- time of peak substrate accumulation [4]: 24 to 48 h
- Lyso-GL1 levels (Lyso-GL1 levels): increased with increasing CBE dose beyond 30 mg/kg
- time of peak glycosphingolipid levels [5]: 24 h
- increase of GL1 levels after CBE treatment ([6]; 100 μM CBE for 24 hours): about 6 fold
- phosphatidylcholine (PC) levels ([6]; 100 μM CBE for 24 hours): largely unaffected
- GL1 levels after CBE treatment ([6]; 100 μM CBE for 24 hours, baseline about 2 ng/ml): about 12 ng/ml
- lyso-GL1 levels after CBE treatment ([6]; 100 μM CBE for 24 hours, from nearly undetectable levels): about 0.08 ng/ml
- time for GL1 and lyso-GL1 levels to normalize after treatment ([6]; normalized to PC levels): 16 h
- IC50 (GCase [7]): ~0.3 µM

Structure (SMILES): C[C@H](CCC(=O)NCCS(=O)(=O)O)[C@H]1CC[C@H]2[C@@H]3[C@H](O)C[C@@H]4C[C@H](O)CC[C@]4(C)[C@H]3C[C@H](O)[C@]12C [sodium taurocholate]
- increase of response (dynamic range) on incubation with sodium taurocholate [8]: ~10 factor
